Source: US12115157B2, “3-phenoxyazetidin-1-yl-heteroaryl pyrrolidine derivatives and the use thereof as medicament” (Boehringer Ingelheim International GmbH, priority 2021, dated 2024)

What was measured:
[1] = In vitro metabolite profiling in human liver microsomes in absence of NADPH; format: in vitro ADME; parameters: key: yes: Metabolite is formed in presence of human liver microsomes in the absence of cofactors as indication of a non-CYP-dependent pathway; Metabolite is not detected in microsomal incubations
Experimental: (§1) In vitro metabolite profiling to evaluate the involvement of non-CYP-enzyme-mediated metabolic pathways such as hydrolysis in addition to CYP-mediated pathways is based on the semiquantitative analysis of the formation of prototypic metabolites in incubations with liver microsomes (with and without beta-nicotinamide adenine dinucleotide phosphate, NADPH), primary human hepatocytes (with and without the pan-CYP inhibitor proadifen) and recombinant CYP enzymes.
(§2) The involvement of hydrolases, such as carboxylesterases or arylacetamide deacetylase, is assumed if the metabolite resulting from amide hydrolysis of a compound of the present invention of general formula (I) wherein R^6 is an acetyl-group, i.e. the deacetylated compound thereof, is not formed in presence of the relevant drug-metabolizing human recombinant CYP enzymes but is formed in human liver microsomes in the absence of NADPH. Hydrolases are highly abundant in liver microsomes; however, in contrast to CYP-related metabolic processes, the catalytic activity of hydrolases is independent of NADPH. As such, the deacetylated metabolite would be formed in incubations of human liver microsomes lacking NADPH.
(§3) A phenotyping assay was performed to identify the CYP enzymes responsible for metabolic conversion of the compound. The metabolic degradation of the test compound and the assessment of formation of metabolites was performed using Supersomes (human CYP expressed in baculovirus infected insect cells) and human liver microsomes, respectively. Compounds were tested specifically for their conversion by CYP isoenzymes 1A1, 1A2, 2B6, 2C8, 2C9, 2C19, 2D6, 3A4 and 3A5. […]
(§4) Following a short preincubation period for 15 min at 37° C., the reaction was initiated by addition of NADPH (reduced form, 1 mM). […] Samples were analyzed for formation of putative metabolites by means of by liquid chromatography-high resolution mass spectrometry.

[2] = tested on: human recombinant CYP enzymes (1A1, 1A2, 2B6, 2C8, 2C9, 2C19, 2D6, 3A4, 3A5); experiment: CYP phenotyping with human recombinant CYP enzymes (Supersomes); format: in vitro ADME; parameters: key: yes: Metabolite is formed in presence of human recombinant CYP-enzymes; Metabolite is not detected in presence of human recombinant CYP-enzymes as indication of a non-CYP-dependent pathway
Experimental: as §1, §2, §3, §4

[3] = tested on: human hepatocytes; experiment: Metabolic stability in human hepatocytes; format: in vitro ADME; settings: human hepatocyte suspension, 1 μM; predicted hepatic clearance as percentage of hepatic blood flow
Experimental: The metabolic degradation of a test compound was assayed in a human hepatocyte suspension. After recovery from cryopreservation, human hepatocytes were diluted in Dulbecco's modified eagle medium (supplemented with 3.5 μg glucagon/500 mL, 2.5 mg insulin/500 mL, 3.75 mg hydrocortisone/500 mL, 5% human serum) to obtain a final cell density of 1.0×10^6 cells/mL or 4.0×10^6 cells/mL, depending on the metabolic turnover rate of the test compound.
Following a 30 minutes preincubation in a cell culture incubator (37° C., 10% CO2), test compound solution was spiked into the hepatocyte suspension, resulting in a final test compound concentration of 1 μM and a final DMSO concentration of 0.05% (v/v).
The cell suspension was incubated at 37° C. (cell culture incubator, horizontal shaker) and samples were removed from the incubation after 0, 0.5, 1, 2, 4 and 6 hours. Samples were quenched with acetonitrile (containing internal standard) and pelleted by centrifugation. The supernatant was transferred to a 96-deepwell plate, and prepared for analysis of decline of parent compound by HPLC-MS/MS.
The percentage of remaining test compound was calculated using the peak area ratio (test compound/internal standard) of each incubation time point relative to the time point 0 peak area ratio. The log-transformed data were plotted versus incubation time, and the absolute value of the slope obtained by linear regression analysis was used to estimate in vitro half-life (T1/2).
In vitro intrinsic clearance (CLint) was calculated from in vitro T1/2 and scaled to whole liver using a hepatocellularity of 120×10^6 cells/g liver, a human liver per body weight of 25.7 g liver/kg as well as in vitro incubation parameters, applying the following equation: CL_[…]_IN VIVO[mL/min/kg]=(CL_[…][μL/min/10^6 cells]×hepatocellularity[10^6 cells/g liver]×liver factor[g/kg body weight])/1000
Hepatic in vivo blood clearance (CL) was predicted according to the well-stirred liver model considering an average liver blood flow (QH) of 20.7 mL/min/kg: CL[mL/min/kg]=CL_[…]_IN VIVO[mL/min/kg]×hepatic blood flow[mL/min/kg]/(CL_[…]_IN VIVO[mL/min/kg]+hepatic blood flow[mL/min/kg])
Results were expressed as percentage of hepatic blood flow: QH[%]=CL[mL/min/kg]/hepatic blood flow[mL/min/kg])

[4] = target: human GPR52 (Homo sapiens (Human), UniProt Q9Y2T5); experiment: HTRF assay for direct cAMP measurement; format: cell-based; settings: CHO-K1 cells stably expressing recombinant human GPR52, mean EC50
Experimental: HTRF cAMP assays were performed using commercially available assay kits according to the manufacturer's instructions (cAMP Dynamic 2 Assay Kit; #62AM4PEJ, Cisbio Bioassays, Bedford, MA). An aliquot of CHO-K1 cells stably expressing recombinant human GPR52 was thawed and resuspended in cell buffer (1×PBS (w/o Ca^2+/Mg^2+)) at a density of 4×10^5 cells per mL. Test compounds were solubilized in DMSO to 10 mM stock solutions and serially diluted in DMSO using 6-fold dilutions to generate 8-point dose response curves. These serially diluted samples were then diluted 1:50 in compound dilution buffer (1×PBS (w/o Ca^2+/Mg^2+) containing 0.5 mM IBMX, 0.1% BSA) to achieve a 4× stock. The diluted compounds were transferred (5 μL per well) in duplicate to the 384-well assay plate (Optiplate #6007290, PerkinElmer, Waltham, MA). Both a positive (reference compound) and negative (non-stimulated vehicle) control was included in each assay run in column 23. The cell suspension was subsequently dispensed into the 384-well assay plates at 15 μL per well (6000 cells) such that the compound was diluted to 1×. […] After a one-hour incubation at room temperature, 10 μL of cAMP D2 reagent followed by 10 μL of cryptate reagent (provided in the Cisbio kit) was added to each well. Plates were then incubated at room temperature for one hour prior to reading. Time-resolved fluorescence measurements were collected on an EnVision® HTRF plate reader (PerkinElmer, Waltham, MA). Counts from the plate reader were fit to the cAMP standard curve included on each plate to determine the amount of cAMP in each test well. The % control was calculated based on the […]. Dose-response curves were generated from the cAMP data and analyzed using a nonlinear least squares curve-fitting program to obtain EC50 values.

[5] = secondary metabolite m443 (of m429)
[6] = secondary metabolite m405 (of m411)
[7] = secondary metabolite m425 (of m411)

human GPR52, sequence (Q9Y2T5 whole entry): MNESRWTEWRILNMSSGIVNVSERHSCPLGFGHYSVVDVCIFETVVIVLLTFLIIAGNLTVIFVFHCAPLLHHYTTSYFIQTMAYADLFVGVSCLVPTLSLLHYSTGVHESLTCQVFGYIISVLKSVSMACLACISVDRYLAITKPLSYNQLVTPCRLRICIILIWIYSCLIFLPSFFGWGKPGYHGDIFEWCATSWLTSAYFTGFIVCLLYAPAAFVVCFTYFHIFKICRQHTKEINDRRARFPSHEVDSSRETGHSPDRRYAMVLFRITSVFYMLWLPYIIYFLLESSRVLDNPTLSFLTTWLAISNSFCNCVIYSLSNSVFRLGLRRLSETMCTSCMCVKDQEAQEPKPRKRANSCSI

Row | Formation in human liver microsomal incubations in absence of NADPH [1, 5] | Specific formation in human recombinant CYP enzymes [2, 5] | Human HepStab [3] | EC50 [4] | Formation in human liver microsomal incubations in absence of NADPH [1, 6] | Formation in human liver microsomal incubations in absence of NADPH [1, 7] | Specific formation in human recombinant CYP enzymes [2, 6] | Specific formation in human recombinant CYP enzymes [2, 7] | SMILES
1 | no^6 | no | 11.4 % QH | – | – | – | – | – | CC(=O)N1C[C@H](NC(=O)c2nccnc2N2CC(Oc3cc(F)c(F)c(F)c3)C2)C(F)(F)C1 [Example 11b]
2 | – | – | 15.3 % QH | 0.014 µM | no^5 | no^5 | no^5 | no^5 | CC(=O)N1C[C@H](NC(=O)c2nccnc2N2CC(Oc3cc(F)cc(F)c3)C2)C(F)(F)C1 [Example 10a]
3 | – | – | 6.4 % QH | 0.02 µM | – | – | – | – | CC(=O)N1CC[C@@H](NC(=O)c2nsnc2N2CC(Oc3cc(F)cc(F)c3)C2)C1 [Example 15a]
